The source of these data is patent US10550127B1, “Indanylaminoazadihydrobenzofuranylacetic acids, pharmaceutical compositions for the treatment of diabetes” (Boehringer Ingelheim International GmbH, priority 2017, dated 2020).

For one data set, the target named is human GPR40 receptor (Homo sapiens (Human), UniProt O14842). In words: IP1 accumulation measurements using the IPOne assay system. The format is cell-based. The conditions noted are these: 1321N1 cells stably expressing human GPR40, 1 h stimulation. As to the method: IP1 accumulation measurements using the IPOne assay system—1321N1 cells stably expressing human GPR40 receptor (Euroscreen, Belgium) are seeded 24 h before the assay in white 384-well plates in culture medium containing 10% FCS, 1% Na-Pyruvate and 400 μg/mL G418. IP1 is assayed according to the manufacturer's description (Cisbio Bioassays, France). In brief, the assay is started by substitution of the culture medium by stimulation buffer (Hepes 10 mM, CaCl2) 1 mM, MgCl2 0.5 mM, KCl 4.2 mM, NaCl 146 mM, glucose 5.5 mM and LiCl 50 mM, pH 7.4). Cells are stimulated for 1 h at 37° C., 5% CO2 by addition of the compounds that are diluted in stimulation buffer containing LiCl. Assays are stopped by adding HTRF-conjugates (IP1-d2 and Anti-IP1 cryptate Tb) and lysis buffer, provided by the manufacturer. After an incubation time of 1 h at room temperature plates are measured using an EnVision™, Perkin Elmer. The obtained fluorescence ratios at 665/615 […] are then used to calculate the pEC50 values using Assay Explorer 3.3 Software (Accelrys, Inc.) by interpolation using an IP1 reference curve and subsequent sigmoidal curve fitting allowing for a variable hill slope.
Sequence of human GPR40 receptor (O14842 whole entry): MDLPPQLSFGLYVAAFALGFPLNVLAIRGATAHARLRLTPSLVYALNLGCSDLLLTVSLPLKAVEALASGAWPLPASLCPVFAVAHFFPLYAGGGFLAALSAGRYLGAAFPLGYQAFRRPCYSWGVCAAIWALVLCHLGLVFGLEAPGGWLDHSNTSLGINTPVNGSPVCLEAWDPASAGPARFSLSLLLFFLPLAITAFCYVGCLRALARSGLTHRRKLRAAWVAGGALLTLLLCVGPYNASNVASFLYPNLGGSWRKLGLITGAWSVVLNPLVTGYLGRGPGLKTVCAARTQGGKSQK

In data set [1] the target is cytochrome P450 2C8-isoenzyme (Homo sapiens (Human), UniProt P10632). In words: Inhibition of CYP-2C8 (amodiaquine deethylation, human liver microsomes). The data set is classed as in vitro ADME. The conditions noted are these: amodiaquine 1 μM, 37° C. As to the method:
All assays are carried out on a robotic system in 96 well plates. The final incubation volume contains TRIS buffer (0.1 M), MgCl2 (5 mM), human liver microsomes (0.05 mg/mL), amodiaquine (1 μM) and the test compound at five different concentrations or no compound (high control) in duplicate (e.g. highest concentration 10-50 μM with subsequent serial 1:4 dilutions). Following a short preincubation period, reactions are started with the cofactor (NADPH, 1 mM) and stopped by cooling the incubation down to 8° C. and subsequently by addition of one volume of acetonitrile. An internal standard solution—the stable isotope d5-desethylamodiaquine—is added after quenching of incubations. Peak area analyte (=metabolite formed) and internal standard is determined by LC-MS/MS. The resulting peak area ratio analyte to internal standard in these incubations is compared to a control activity containing no test compound. Within each of the assay runs, the IC50 of a positive control inhibitor (Montelukast) is determined. Experimental IC50 values are calculated by least square regression according to the following equation: % control activity=(100% control activity/(1+(I/IC50)S))−B with I=inhibitor concentration; S=slope factor; B=background activity (lower plateau of the inhibition curve)
If the inhibition of the reaction is already >50% at the lowest concentration of the test compound, the IC50 is assigned “<lowest concentration tested” (usually <0.4 μM). If the inhibition of the reaction is still <50% at the highest concentration of the test compound, the IC50 is assigned “> highest concentration tested” (usually >50 μM).

The nature of another data set: Aqueous solubility. The data set is classed as physicochemical. The conditions noted are these: aqueous buffer, kinetic from dmso stock, buffer pH 2.2, 24 h shaking, 2.5% DMSO. As to the method:
The aqueous solubility of the compounds of the invention is determined by comparing the amount dissolved in buffer to the amount in an acetonitrile/water (1/1) solution. Starting from a 10 mM DMSO stock solution aliquots are diluted with acetonitrile/water (1/1) or buffer, respectively. After 24 h of shaking, the solutions are filtrated and analyzed by LC-UV. The amount dissolved in buffer is compared to the amount in the acetonitrile solution.
Solubility is usually being measured from 0.001 to 0.125 mg/mL at a DMSO concentration of 2.5%. If more than 90% of the compound is dissolved in buffer, the value is marked with “>”.

Sequence of cytochrome P450 2C8-isoenzyme (P10632 whole entry): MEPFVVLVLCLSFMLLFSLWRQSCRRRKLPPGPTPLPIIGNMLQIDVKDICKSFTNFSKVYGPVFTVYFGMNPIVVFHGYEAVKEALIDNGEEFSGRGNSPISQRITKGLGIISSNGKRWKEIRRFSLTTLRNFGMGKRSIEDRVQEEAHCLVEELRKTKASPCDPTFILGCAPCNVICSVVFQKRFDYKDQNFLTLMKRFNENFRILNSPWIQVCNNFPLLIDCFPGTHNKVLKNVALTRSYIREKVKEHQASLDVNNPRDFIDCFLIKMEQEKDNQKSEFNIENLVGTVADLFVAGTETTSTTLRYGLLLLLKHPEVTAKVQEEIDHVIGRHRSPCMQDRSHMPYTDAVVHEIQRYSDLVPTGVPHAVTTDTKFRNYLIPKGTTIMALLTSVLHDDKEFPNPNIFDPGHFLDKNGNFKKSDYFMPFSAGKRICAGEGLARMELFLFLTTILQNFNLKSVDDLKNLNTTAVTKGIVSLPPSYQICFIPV

On to `Cc1cc(OCCC(C)(C)O)cc(C)c1-c1cccc2c1CC[C@H]2Nc1cc2c(cn1)[C@@H](CC(=O)O)CO2` [Example 4, ((R)-6-{(R)-4-[4-(3-Hydroxy-3-methyl-butoxy)-2,6-dimethyl-phenyl]-indan-1-ylamino}-2,3-dihydro-furo[3,2-c]pyridin-3-yl)-acetic acid], for which the EC50 on human GPR40 receptor turned out to be 751 nM. Same read-out and setting: under `Cc1cc(-c2nnn(C)n2)cc(C)c1-c1cccc2c1CC[C@H]2Nc1cc2c(cn1)[C@@H](CC(=O)O)CO2` [Example 8, ((R)-6-{(R)-4-[2,6-Dimethyl-4-(2-methyl-2H-tetrazol-5-yl)-phenyl]-indan-1-ylamino}-2,3-dihydro-furo[3,2-c]pyridin-3-yl)-acetic acid] stands 378 nM. Still for that read-out and setting: under `Cc1cc(OC2CCOCC2)cc(C)c1-c1ccc(F)c2c1CC[C@H]2Nc1cc2c(cn1)[C@H](CC(=O)O)CO2` [Example 10, ((S)-6-{(R)-4-[2,6-Dimethyl-4-(tetrahydro-pyran-4-yloxy)-phenyl]-7-fluoro-indan-1-ylamino}-2,3-dihydro-furo[3,2-c]pyridin-3-yl)-acetic Acid] stands 56 nM; under `Cc1cc(-c2nnn(CC(C)(C)O)n2)cc(C)c1-c1ccc(F)c2c1CC[C@H]2Nc1cc2c(cn1)[C@H](CC(=O)O)CO2` [Example 15, [(S)-6-((R)-7-Fluoro-4-{4-[2-(2-hydroxo-2-methyl-propyl)-2H-tetrazol-5-yl]-2,6-dimethyl-phenyl}-indan-1-ylamino)-2,3-dihydro-furo[3,2-c]pyridin-3-yl]-acetic acid], 9 nM; under `Cc1cc(-c2cnccn2)cc(C)c1-c1ccc(F)c2c1CC[C@H]2Nc1cc2c(cn1)[C@H](CC(=O)O)CO2` [Example 20, {(S)-6-[(R)-4-(2,6-Dimethyl-4-pyrazin-2-yl-phenyl)-7-fluoro-indan-1-ylamino]-2,3-dihydro-furo[3,2-c]pyridin-3-yl}-acetic acid], 9 nM. On the same count and under the same terms, under `Cc1cc(-c2ccn(C)c(=O)n2)cc(C)c1-c1ccc(F)c2c1CC[C@H]2Nc1cc2c(cn1)[C@H](CC(=O)O)CO2` [Example 16, ((S)-6-{(R)-4-[2,6-Dimethyl-4-(1-methyl-2-oxo-1,2-dihydro-pyrimidin-4-yl)-phenyl]-7-fluoro-indan-1-ylamino}-2,3-dihydro-furo[3,2-c]pyridin-3-yl)-acetic acid] stands 27 nM; under `Cc1cc(-c2ccn(C)c(=O)c2)cc(C)c1-c1ccc(F)c2c1CC[C@H]2Nc1cc2c(cn1)[C@H](CC(=O)O)CO2` [Example 17, ((S)-6-{(R)-4-[2,6-Dimethyl-4-(1-methyl-2-oxo-1,2-dihydro-pyridin-4-yl)-phenyl]-7-fluoro-indan-1-ylamino}-2,3-dihydro-furo[3,2-c]pyridin-3-yl)-acetic Acid], 12 nM.

Take `Cc1cc(OCC2(C)COC2)cc(C)c1-c1ccc(F)c2c1CC[C@H]2Nc1cc2c(cn1)[C@H](CC(=O)O)CO2` [Example 11, ((S)-6-{(R)-4-[2,6-Dimethyl-4-(3-methyl-oxetan-3-ylmethoxy)-phenyl]-7-fluoro-indan-1-ylamino}-2,3-dihydro-furo[3,2-c]pyridin-3-yl)-acetic Acid]: the concentration for a half-maximal effect (EC50) at human GPR40 receptor turned out to be 37 nM. `Cc1cc(OCCC(C)(C)O)cc(C)c1-c1ccc(F)c2c1CC[C@H]2Oc1ccc2c(c1)OC[C@H]2CC(=O)O` [Example 16 in WO 2013/144098, reference compound]: the IC50 in data set [1] was determined as 5000 nM. This compound came in with a solubility at 24 h in the data set “Aqueous solubility” of less than 1 µg/mL. In the data set “Aqueous solubility”, `Cc1cc(-c2nnn(C)n2)cc(C)c1-c1ccc(F)c2c1CC[C@H]2Oc1ccc2c(c1)OC[C@H]2CC(=O)O` [Example 138 in WO 2013/144098, reference compound] showed a solubility at 24 h of less than 1 µg/mL. The compound `Cc1cc(-c2ccc(=O)n(C)c2)cc(C)c1-c1ccc(F)c2c1CC[C@H]2Nc1cc2c(cn1)[C@H](CC(=O)O)CO2` [Example 19, ((S)-6-{(R)-4-[2,6-Dimethyl-4-(1-methyl-6-oxo-1,6-dihydro-pyridin-3-yl)-phenyl]-7-fluoro-indan-1-ylamino}-2,3-dihydro-furo[3,2-c]pyridin-3-yl)-acetic Acid] gave an EC50 on human GPR40 receptor of 27 nM. Still for that read-out and setting: to `Cc1cc(-c2nnn(C)n2)cc(C)c1-c1ccc(F)c2c1CC[C@H]2Nc1cc2c(cn1)[C@@H](CC(=O)O)CO2` [Example 6, ((R)-6-{(R)-4-[2,6-Dimethyl-4-(2-methyl-2H-tetrazol-5-yl)-phenyl]-7-fluoro-indan-1-ylamino}-2,3-dihydro-furo[3,2-c]pyridin-3-yl)-acetic Acid] belongs 382 nM.

In turn, `Cc1cc(OCCC(C)(C)O)cc(C)c1-c1cccc2c1CC[C@H]2Nc1cc2c(cn1)[C@H](CC(=O)O)CO2` [Example 3, ((S)-6-{(R)-4-[4-(3-Hydroxy-3-methyl-butoxy)-2,6-dimethyl-phenyl]-indan-1-ylamino}-2,3-dihydro-furo[3,2-c]pyridin-3-yl)-acetic Acid] had a concentration giving a half-maximal response (EC50) at human GPR40 receptor of 21 nM.

`Cc1cc(-c2cc(=O)n(C)cn2)cc(C)c1-c1ccc(F)c2c1CC[C@H]2Nc1cc2c(cn1)[C@H](CC(=O)O)CO2` [Example 18, ((S)-6-{(R)-4-[2,6-Dimethyl-4-(1-methyl-6-oxo-1,6-dihydro-pyrimidin-4-yl)-phenyl]-7-fluoro-indan-1-ylamino}-2,3-dihydro-furo[3,2-c]pyridin-3-yl)-acetic Acid] showed a concentration giving a half-maximal response (EC50) at human GPR40 receptor of 14 nM. On the same count and under the same terms, under `Cc1cc(O[C@H]2CCOC2)cc(C)c1-c1ccc(F)c2c1CC[C@H]2Nc1cc2c(cn1)[C@H](CC(=O)O)CO2` [Example 12, [(S)-6-((R)-4-{2,6-Dimethyl-4-[(S)-(tetrahydro-furan-3-yl)oxy]-phenyl}-7-fluoro-indan-1-ylamino)-2,3-dihydro-furo[3,2-c]pyridin-3-yl]-acetic Acid] stands 73 nM; under `Cc1cc(OCCC(C)(C)O)cc(C)c1-c1ccc(F)c2c1CC[C@H]2Nc1cc2c(cn1)[C@@H](CC(=O)O)CO2` [Example 2, ((R)-6-{(R)-7-Fluoro-4-[4-(3-hydroxy-3-methyl-butoxy)-2,6-dimethyl-phenyl]-indan-1-ylamino}-2,3-dihydro-furo[3,2-c]pyridin-3-yl)-acetic Acid], 764 nM; under `Cc1cc(O[C@@H]2CCOC2)cc(C)c1-c1ccc(F)c2c1CC[C@H]2Nc1cc2c(cn1)[C@H](CC(=O)O)CO2` [Example 9, [(S)-6-((R)-4-{2,6-Dimethyl-4-[(R)-(tetrahydro-furan-3-yl)oxy]-phenyl}-7-fluoro-indan-1-ylamino)-2,3-dihydro-furo[3,2-c]pyridin-3-yl]-acetic Acid], 57 nM. Same read-out and setting: under `Cc1cc(OCC(C)(C)O)cc(C)c1-c1ccc(F)c2c1CC[C@H]2Nc1cc2c(cn1)[C@H](CC(=O)O)CO2` [Example 13, ((S)-6-{(R)-7-Fluoro-4-[4-(2-hydroxo-2-methyl-propoxy)-2,6-dimethyl-phenyl]-indan-1-ylamino}-2,3-dihydro-furo[3,2-c]pyridin-3-yl)-acetic Acid] stands 35 nM; under `Cc1cc(OCC2CCOC2)cc(C)c1-c1ccc(F)c2c1CC[C@H]2Nc1cc2c(cn1)[C@H](CC(=O)O)CO2` (stereo partly drawn) [Example 14, ((S)-6-{(R)-4-[2,6-Dimethyl-4-(tetrahydro-furan-3-ylmethoxy)-phenyl]-7-fluoro-indan-1-ylamino}-2,3-dihydro-furo[3,2-c]pyridin-3-yl)-acetic Acid], 27 nM. Compound `Cc1cc(-c2nnn(C)n2)cc(C)c1-c1cccc2c1CC[C@H]2Nc1cc2c(cn1)[C@H](CC(=O)O)CO2` [Example 7, ((S)-6-{(R)-4-[2,6-Dimethyl-4-(2-methyl-2H-tetrazol-5-yl)-phenyl]-indan-1-ylamino}-2,3-dihydro-furo[3,2-c]pyridin-3-yl)-acetic Acid] showed an EC50 at human GPR40 receptor of 7 nM.
